In the supplement of paper PMC10307832:

What was measured:
Assay in all cases: relative viability (nuclei count vs DMSO), 5 days (fraction); higher = more cells survive
[1] = tested on: NCI-H1651
Method in brief: (§1)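 Relative viability is defined as nuclei in treated wells over nuclei in vehicle wells. Duplicate plates were run and medians reported. Lung cancer cell lines in 1536-well plates were dosed by pin tool one day after seeding, with one drug or with a fixed anchor-drug dose plus five library-drug doses (not always all listed) in √10 steps, and nuclei were counted after 5 days.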

[2] = tested on: NCI-H1355
Method in brief: as §1

[3] = tested on: ABC-1
Method in brief: as §1

[4] = tested on: HCC-44
Method in brief: as §1

[5] = tested on: NCI-H1915
Method in brief: as §1

[6] = tested on: NCI-H2085
Method in brief: as §1

[7] = tested on: PC-14
Method in brief: as §1

[8] = tested on: NCI-H650
Method in brief: as §1

[9] = tested on: EPLC-272H
Method in brief: as §1

[10] = tested on: LC-2-ad
Method in brief: as §1

[11] = tested on: HARA
Method in brief: as §1

[12] = tested on: NCI-H838
Method in brief: as §1

[13] = tested on: NCI-H2126
Method in brief: as §1

[14] = tested on: HCC-15
Method in brief: as §1

[15] = tested on: NCI-H2347
Method in brief: as §1

[16] = tested on: NCI-H1993
Method in brief: as §1

[17] = tested on: LU99A
Method in brief: as §1

[18] = tested on: HOP-62
Method in brief: as §1

Question: How did the relative viability ([1]; first compound 0.005 µM) turn out when `Nc1ccn([C@@H]2O[C@H](CO)[C@@H](O)[C@@H]2O)c(=O)n1` [Cytarabine] + NC(=O)Nc1cc(-c2cccc(F)c2)sc1C(=O)N[C@H]1CCCNC1 [AZD7762] (partner 0.2 µM) was run?
Answer: 0.484

Question: What about the relative viability ([1]; first compound 0.01581 µM) of the same compound?
Answer: 0.447

Question: And the relative viability ([1]; first compound 0.05 µM)?
Answer: 0.297

Question: And the relative viability ([1]; first compound 0.1581 µM)?
Answer: 0.114

Question: And the relative viability ([1]; first compound 0.5 µM)?
Answer: 0.0958

Question: What about the relative viability ([2]; first compound 0.005 µM) of the same compound?
Answer: 0.455

Question: And the relative viability ([2]; first compound 0.01581 µM)?
Answer: 0.455

Question: And the relative viability ([2]; first compound 0.05 µM)?
Answer: 0.356

Question: What about the relative viability ([2]; first compound 0.1581 µM) of the same compound?
Answer: 0.181

Question: What about the relative viability ([2]; first compound 0.5 µM) of the same compound?
Answer: 0.188

Question: What about the relative viability ([3]; first compound 0.005 µM) of the same compound?
Answer: 0.626

Question: What about the relative viability ([3]; first compound 0.01581 µM) of the same compound?
Answer: 0.899

Question: What about the relative viability ([3]; first compound 0.05 µM) of the same compound?
Answer: 0.745

Question: What about the relative viability ([3]; first compound 0.1581 µM) of the same compound?
Answer: 0.744

Question: And the relative viability ([3]; first compound 0.5 µM)?
Answer: 0.666

Question: And the relative viability ([4]; first compound 0.005 µM)?
Answer: 1.07

Question: And the relative viability ([4]; first compound 0.01581 µM)?
Answer: 0.916

Question: What about the relative viability ([4]; first compound 0.05 µM) of the same compound?
Answer: 0.476

Question: And the relative viability ([4]; first compound 0.1581 µM)?
Answer: 0.332

Question: And the relative viability ([4]; first compound 0.5 µM)?
Answer: 0.249

Question: What about the relative viability ([5]; first compound 0.005 µM) of the same compound?
Answer: 0.579

Question: What about the relative viability ([5]; first compound 0.01581 µM) of the same compound?
Answer: 0.386

Question: What about the relative viability ([5]; first compound 0.05 µM) of the same compound?
Answer: 0.241

Question: What about the relative viability ([5]; first compound 0.1581 µM) of the same compound?
Answer: 0.155

Question: What about the relative viability ([5]; first compound 0.5 µM) of the same compound?
Answer: 0.131

Question: What about the relative viability ([6]; first compound 0.005 µM) of the same compound?
Answer: 0.997

Question: What about the relative viability ([6]; first compound 0.01581 µM) of the same compound?
Answer: 0.997

Question: And the relative viability ([6]; first compound 0.05 µM)?
Answer: 0.956

Question: What about the relative viability ([6]; first compound 0.1581 µM) of the same compound?
Answer: 0.694

Question: And the relative viability ([6]; first compound 0.5 µM)?
Answer: 0.516

Question: And the relative viability ([7]; first compound 0.005 µM)?
Answer: 0.346

Question: And the relative viability ([7]; first compound 0.01581 µM)?
Answer: 0.234

Question: And the relative viability ([7]; first compound 0.05 µM)?
Answer: 0.136

Question: And the relative viability ([7]; first compound 0.1581 µM)?
Answer: 0.0783

Question: What about the relative viability ([7]; first compound 0.5 µM) of the same compound?
Answer: 0.0484

Question: And the relative viability ([8]; first compound 0.005 µM)?
Answer: 0.843

Question: And the relative viability ([8]; first compound 0.01581 µM)?
Answer: 0.26

Question: What about the relative viability ([8]; first compound 0.05 µM) of the same compound?
Answer: 0.19

Question: What about the relative viability ([8]; first compound 0.1581 µM) of the same compound?
Answer: 0.146

Question: And the relative viability ([8]; first compound 0.5 µM)?
Answer: 0.162

Question: And the relative viability ([9]; first compound 0.005 µM)?
Answer: 0.335

Question: And the relative viability ([9]; first compound 0.01581 µM)?
Answer: 0.273

Question: And the relative viability ([9]; first compound 0.05 µM)?
Answer: 0.117

Question: What about the relative viability ([9]; first compound 0.1581 µM) of the same compound?
Answer: 0.0659

Question: What about the relative viability ([9]; first compound 0.5 µM) of the same compound?
Answer: 0.0636

Question: What about the relative viability ([10]; first compound 0.005 µM) of the same compound?
Answer: 0.811

Question: And the relative viability ([10]; first compound 0.01581 µM)?
Answer: 0.681

Question: And the relative viability ([10]; first compound 0.05 µM)?
Answer: 0.674

Question: What about the relative viability ([10]; first compound 0.1581 µM) of the same compound?
Answer: 0.245

Question: And the relative viability ([10]; first compound 0.5 µM)?
Answer: 0.208

Question: What about the relative viability ([11]; first compound 0.005 µM) of the same compound?
Answer: 0.298

Question: And the relative viability ([11]; first compound 0.01581 µM)?
Answer: 0.211

Question: And the relative viability ([11]; first compound 0.05 µM)?
Answer: 0.176

Question: And the relative viability ([11]; first compound 0.1581 µM)?
Answer: 0.157

Question: What about the relative viability ([11]; first compound 0.5 µM) of the same compound?
Answer: 0.171

Question: And the relative viability ([12]; first compound 0.005 µM)?
Answer: 0.738

Question: And the relative viability ([12]; first compound 0.01581 µM)?
Answer: 0.699

Question: What about the relative viability ([12]; first compound 0.05 µM) of the same compound?
Answer: 0.665

Question: And the relative viability ([12]; first compound 0.1581 µM)?
Answer: 0.652

Question: And the relative viability ([12]; first compound 0.5 µM)?
Answer: 0.631

Question: What about the relative viability ([13]; first compound 0.005 µM) of the same compound?
Answer: 0.965

Question: And the relative viability ([13]; first compound 0.01581 µM)?
Answer: 0.936

Question: What about the relative viability ([13]; first compound 0.05 µM) of the same compound?
Answer: 0.808

Question: And the relative viability ([13]; first compound 0.1581 µM)?
Answer: 0.361

Question: What about the relative viability ([13]; first compound 0.5 µM) of the same compound?
Answer: 0.267

Question: What about the relative viability ([14]; first compound 0.005 µM) of the same compound?
Answer: 1.11

Question: And the relative viability ([14]; first compound 0.01581 µM)?
Answer: 1.52

Question: What about the relative viability ([14]; first compound 0.05 µM) of the same compound?
Answer: 1.45

Question: And the relative viability ([14]; first compound 0.1581 µM)?
Answer: 1.06

Question: What about the relative viability ([14]; first compound 0.5 µM) of the same compound?
Answer: 0.913

Question: And the relative viability ([15]; first compound 0.005 µM)?
Answer: 0.721

Question: What about the relative viability ([15]; first compound 0.01581 µM) of the same compound?
Answer: 0.525

Question: And the relative viability ([15]; first compound 0.05 µM)?
Answer: 0.47

Question: And the relative viability ([15]; first compound 0.1581 µM)?
Answer: 0.369

Question: What about the relative viability ([15]; first compound 0.5 µM) of the same compound?
Answer: 0.286

Question: And the relative viability ([16]; first compound 0.005 µM)?
Answer: 0.766

Question: And the relative viability ([16]; first compound 0.01581 µM)?
Answer: 0.562

Question: And the relative viability ([16]; first compound 0.05 µM)?
Answer: 0.654

Question: And the relative viability ([16]; first compound 0.1581 µM)?
Answer: 0.523

Question: And the relative viability ([16]; first compound 0.5 µM)?
Answer: 0.523

Question: And the relative viability ([17]; first compound 0.005 µM)?
Answer: 0.444

Question: And the relative viability ([17]; first compound 0.01581 µM)?
Answer: 0.362

Question: What about the relative viability ([17]; first compound 0.05 µM) of the same compound?
Answer: 0.305

Question: And the relative viability ([17]; first compound 0.1581 µM)?
Answer: 0.352

Question: What about the relative viability ([17]; first compound 0.5 µM) of the same compound?
Answer: 0.115

Question: And the relative viability ([18]; first compound 0.005 µM)?
Answer: 0.391

Question: What about the relative viability ([18]; first compound 0.01581 µM) of the same compound?
Answer: 0.157

Question: And the relative viability ([18]; first compound 0.05 µM)?
Answer: 0.203

Question: What about the relative viability ([18]; first compound 0.1581 µM) of the same compound?
Answer: 0.107

Question: What about the relative viability ([18]; first compound 0.5 µM) of the same compound?
Answer: 0.0888
